The values that follow come from US8088930B2, “Benzimidazole derivatives” (Hoffmann-La Roche Inc., priority 2008, dated 2012).

Usually IC50 stands for the midpoint of a concentration-inhibition curve.

The first test has as its target T1, FXR ligand binding domain (GST-FXR LBD fusion protein, human FXR aa 193-473) (Homo sapiens, UniProt Q96RI1).
T1 construct: fused on or other part: Glutathione-S-transferase (GST) fused N-terminally to the FXR LBD, used to capture the protein on glutathione SPA beads
T1 sequence (Q96RI1 211-486 limits assumed): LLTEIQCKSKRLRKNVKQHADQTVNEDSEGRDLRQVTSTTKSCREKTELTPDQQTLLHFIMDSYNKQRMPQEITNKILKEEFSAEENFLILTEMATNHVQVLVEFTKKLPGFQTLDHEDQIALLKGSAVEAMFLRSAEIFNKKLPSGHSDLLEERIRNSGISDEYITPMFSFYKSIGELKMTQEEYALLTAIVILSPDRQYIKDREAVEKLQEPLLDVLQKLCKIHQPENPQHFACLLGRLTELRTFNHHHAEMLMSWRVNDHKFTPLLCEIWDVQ
Kind of test: Radioligand binding assay (scintillation proximity, radioligand displacement). The note with it: 40 nM GST-FXR LBD on SPA beads, test compound 6×10^−9 M to 2.5×10^−5 M, read-out: h-IC50 Binding. The method, then: The following tests were carried out in order to determine the activity of the compounds of formula (I).
To accomplish this, the portions of the sequences encoding the FXR LBD were amplified by polymerase chain reaction (PCR) from a full-length clone by PCR and then subcloned into the plasmid vectors. The final clone was verified by DNA sequence analysis.
The induction, expression, and subsequent purification of GST-LBD fusion protein was performed in E. coli strain BL21(pLysS) cells by standard methods (Current Protocols in Molecular Biology, Wiley Press, ed. Ausubel et al.).
Radioligand Binding Assay
Binding of test substances to the FXR ligand binding domain was assessed in a radioligand displacement assay. The assay was performed in a buffer consisting of 50 mM Hepes, pH 7.4, 10 mM NaCl, 5 mM MgCl2, 0.01% CHAPS. For each reaction well in a 96-well plate, 40 nM of GST-FXR LBD fusion protein was bound to 10 μg glutathione yttrium silicate SPA beads (Pharmacia Amersham) in a final volume of 50 μl by shaking. A radioligand (e.g., 20 nM of 2,N-dicyclohexyl-2-[2-(2,4 dimethoxy-phenyl)-benzoimidazol-1-yl]-acetamide) and test compounds were added, and scintillation proximity counting was performed. All binding assays were performed in 96-well plates and the amount of bound ligand was measured on a Packard TopCount using OptiPlates (Packard).
As to `O=C(O)c1cc(F)c(OCC(C2CCCCC2)n2c(-c3ccc(Cl)cc3)nc3cc(F)c(F)cc32)c(F)c1` (single isomer, unassigned; (+)) [Example 87, (+)-4-{2-[2-(4-Chloro-phenyl)-5,6-difluoro-benzoimidazol-1-yl]-2-cyclohexyl-ethoxy}-3,5-difluoro-benzoic acid], the IC50 was 0.04 µM.

`COc1ccc(-c2nc3cc(F)c(F)cc3n2C(COc2c(F)cc(C(=O)O)cc2F)C2CCCCC2)c(OC)n1` (single isomer, unassigned; (+)) [Example 97, (+)-4-{2-Cyclohexyl-2-[2-(2,6-dimethoxy-pyridin-3-yl)-5,6-difluoro-benzoimidazol-1-yl]-ethoxy}-3,5-difluoro-benzoic acid]: the IC50 was 0.05 µM.

As to `COc1ccc(-c2nc3cc(F)c(F)cc3n2C(COc2c(C)cc(-c3nnn[nH]3)cc2C)C2CCCCC2)c(OC)n1` (single isomer, unassigned; (+)) [Example 100, (+)-1-{1-Cyclohexyl-2-[2,6-dimethyl-4-(1H-tetrazol-5-yl)-phenoxy]-ethyl}-2-(2,6-dimethoxy-pyridin-3-yl)-5,6-difluoro-1H-benzoimidazole], the IC50 turned out to be 0.02 µM.

`O=C(O)c1cc(F)c(OCC(C2CCCCC2)n2c(-c3ccc(Cl)cc3)nc3ccccc32)c(F)c1` (single isomer, unassigned; (+)) [Example 103, (+)-4-{2-[2-(4-Chloro-phenyl)-benzoimidazol-1-yl]-2-cyclohexyl-ethoxy}-3,5-difluoro-benzoic acid]: the IC50 amounted to 0.1 µM.

Turning to `Cc1cc(C(=O)O)cc(C)c1OCC(C1CCCCC1)n1c(-c2ccc(Cl)cc2)nc2ccccc21` (single isomer, unassigned; (+)) [Example 107, (+)-4-{2-[2-(4-Chloro-phenyl)-benzoimidazol-1-yl]-2-cyclohexyl-ethoxy}-3,5-dimethyl-benzoic acid], the IC50 was determined as 0.01 µM.

As to `O=C(O)c1cc(F)c(OCC(C2CCCCC2)n2c(-c3ccc(Cl)cc3)nc3ccccc32)c(Cl)c1` (single isomer, unassigned; (+)) [Example 110, (+)-3-Chloro-4-{2-[2-(4-chloro-phenyl)-benzoimidazol-1-yl]-2-cyclohexyl-ethoxy}-5-fluoro-benzoic acid], the IC50 came out at 0.06 µM.

Turning to `Cc1cc(-c2nnn[nH]2)cc(C)c1OCC(C1CCCCC1)n1c(-c2ccc(Cl)cc2)nc2ccccc21` (single isomer, unassigned; (+)) [Example 113, (+)-2-(4-Chloro-phenyl)-1-{1-cyclohexyl-2-[2,6-dimethyl-4-(1H-tetrazol-5-yl)-phenoxy]-ethyl}-1H-benzoimidazole], the IC50 was found to be 0.002 µM.

Regarding `CC(C)(Oc1c(F)cc(C(=O)O)cc1F)C(C1CCCCC1)n1c(-c2ccc(Cl)cc2)nc2cc(F)c(F)cc21` (single isomer, unassigned; (+)) [Example 116, (+)-4-{2-[2-(4-Chloro-phenyl)-5,6-difluoro-benzoimidazol-1-yl]-2-cyclohexyl-1,1-dimethyl-ethoxy}-3,5-difluoro-benzoic acid], the IC50 stood at 0.002 µM.

In the case of `O=C(O)C1(Oc2ccc(OCC(C3CCCCC3)n3c(-c4ccc(Cl)cc4)nc4cc(F)c(F)cc43)cc2)CCC1` (single isomer, unassigned; (+)) [Example 118, (+)-1-(4-{2-[2-(4-Chloro-phenyl)-5,6-difluoro-benzoimidazol-1-yl]-2-cyclohexyl-ethoxy}-phenoxy)-cyclobutanecarboxylic acid], the IC50 is 0.31 µM.

For `O=C(O)C1(Oc2ccc(OCC(C3CCCCC3)n3c(-c4ccc(Cl)cc4)nc4cc(F)c(F)cc43)cc2)CC1` (single isomer, unassigned; (+)) [Example 122, (+)-1-(4-{2-[2-(4-Chloro-phenyl)-5,6-difluoro-benzoimidazol-1-yl]-2-cyclohexyl-ethoxy}-phenoxy)-cyclopropanecarboxylic acid], the IC50 turned out to be 0.18 µM.

Take `Cc1cc(Cl)ccc1-c1nc2cc(F)c(F)cc2n1C(COc1c(F)cc(C(=O)O)cc1F)C1CCCCC1` (single isomer, unassigned; (+)) [Example 126, (+)-4-{2-[2-(4-Chloro-2-methyl-phenyl)-5,6-difluoro-benzoimidazol-1-yl]-2-cyclohexyl-ethoxy}-3,5-difluoro-benzoic acid]: the IC50 came to 0.03 µM.

Regarding `O=C(O)c1cc(F)c(OCC(C2CCCCCC2)n2c(-c3ccc(Cl)cc3)nc3cc(F)c(F)cc32)c(F)c1` (single isomer, unassigned; (+)) [Example 133, (+)-4-{2-[2-(4-Chloro-phenyl)-5,6-difluoro-benzoimidazol-1-yl]-2-cycloheptyl-ethoxy}-3,5-difluoro-benzoic acid], the IC50 amounted to 0.01 µM.

As to `O=C(O)c1ccc(CCC(C2CCCCC2)n2c(-c3ccccc3)nc3cc(F)c(F)cc32)cc1` (single isomer, unassigned; (+)) [Example 144, (+)-4-[3-Cyclohexyl-3-(5,6-difluoro-2-phenyl-benzoimidazol-1-yl)-propyl]-benzoic acid], the IC50 was 0.2 µM.

As for `COc1ccc(-c2nc3cc(F)c(F)cc3n2C(CCc2ccc(C(=O)O)cc2)C2CCCCC2)c(OC)n1` (single isomer, unassigned; (+)) [Example 147, (+)-4-{3-Cyclohexyl-3-[2-(2,6-dimethoxy-pyridin-3-yl)-5,6-difluoro-benzoimidazol-1-yl]-propyl}-benzoic acid], the half-inhibitory concentration (IC50) is 0.0004 µM.

As for `Fc1cc2nc(-c3ccc(Cl)cc3)n(C(COCC3CCCCC3)C3CCCCC3)c2cc1F` (single isomer, unassigned; (-)) [Example 2, (−)-2-(4-Chloro-phenyl)-1-(1-cyclohexyl-2-cyclohexylmethoxy-ethyl)-5,6-difluoro-1H-benzoimidazole], the IC50 is 0.06 µM.

As for `O=C(O)c1ccc(OCC(C2CCCCC2)n2c(-c3ccc(Cl)cc3)nc3cc(F)c(F)cc32)cc1` (single isomer, unassigned; (-)) [Example 6, (−)-4-{2-[2-(4-Chloro-phenyl)-5,6-difluoro-benzoimidazol-1-yl]-2-cyclohexyl-ethoxy}-benzoic acid], the IC50 worked out at 0.09 µM.

Consider `Cc1cc(C(=O)O)ccc1OCC(C1CCCCC1)n1c(-c2ccc(Cl)cc2)nc2cc(F)c(F)cc21` (single isomer, unassigned; (-)) [Example 12, (−)-4-{2-[2-(4-Chloro-phenyl)-5,6-difluoro-benzoimidazol-1-yl]-2-cyclohexyl-ethoxy}-3-methyl-benzoic acid], for which the IC50 stood at 0.05 µM.

Take `O=C(O)c1ccc(OCC(C2CCCCC2)n2c(-c3ccc(Cl)cc3)nc3cc(F)c(F)cc32)nc1` (single isomer, unassigned; (-)) [Example 21, (−)-6-{2-[2-(4-Chloro-phenyl)-5,6-difluoro-benzoimidazol-1-yl]-2-cyclohexyl-ethoxy}-nicotinic acid]: the IC50 came to 0.6 µM.

`O=C(O)c1cnc(OCC(C2CCCCC2)n2c(-c3ccc(Cl)cc3)nc3cc(F)c(F)cc32)c(Cl)c1` (single isomer, unassigned; (-)) [Example 24, (−)-5-Chloro-6-{2-[2-(4-chloro-phenyl)-5,6-difluoro-benzoimidazol-1-yl]-2-cyclohexyl-ethoxy}-nicotinic acid]: the IC50 was determined as 0.02 µM.

Take `O=C(O)c1cnc(OCC(C2CCCCC2)n2c(-c3ccc(Cl)cc3)nc3cc(F)c(F)cc32)c2ccsc12` (single isomer, unassigned; (-)) [Example 28, (−)-4-{2-[2-(4-Chloro-phenyl)-5,6-difluoro-benzoimidazol-1-yl]-2-cyclohexyl-ethoxy}-thieno[3,2-c]pyridine-7-carboxylic acid]: the IC50 was 0.04 µM.

In the case of `O=C(O)c1ccc(OCC(C2CCCCC2)n2c(-c3ccc(Cl)cc3)nc3cc(F)c(F)cc32)c(C(F)(F)F)c1` (single isomer, unassigned; (-)) [Example 41, (−)-4-{2-[2-(4-Chloro-phenyl)-5,6-difluoro-benzoimidazol-1-yl]-2-cyclohexyl-ethoxy}-3-trifluoromethyl-benzoic acid], the IC50 was 0.07 µM.

On to `O=C(O)c1c(F)cc(OCC(C2CCCCC2)n2c(-c3ccc(Cl)cc3)nc3cc(F)c(F)cc32)cc1F` (single isomer, unassigned; (-)) [Example 44, (−)-4-{2-[2-(4-Chloro-phenyl)-5,6-difluoro-benzoimidazol-1-yl]-2-cyclohexyl-ethoxy}-2,6-difluoro-benzoic acid], for which the IC50 worked out at 0.4 µM.

Staying with this test, now noted: h-IC50 Binding, 40 nM GST-FXR LBD on SPA beads, test compound 6×10^−9 M to 2.5×10^−5 M.
`O=C(O)c1ccc(OCC(C2CCCCC2)n2c(-c3ccc(Cl)cc3)nc3cc(F)c(F)cc32)c(F)c1` (single isomer, unassigned; (-)) [Example 8, (−)-4-{2-[2-(4-Chloro-phenyl)-5,6-difluoro-benzoimidazol-1-yl]-2-cyclohexyl-ethoxy}-3-fluoro-benzoic acid] displayed an IC50 of 0.02 µM.
